# Results published in article PMC7125537 (Bioorganic & Medicinal Chemistry Letters, 2010).
# Tested on: DU-145 cells
# Test: Migration assay
# Type: cell-based, human
smiles,measurement,value
"NC(=S)N/N=C(/c1cccc(Br)c1)c1ccccc1F [analog 1, 3-bromophenyl-2′-fluorophenyl thiosemicarbazone]",inhibition of DU-145 cell migration (in words),effective inhibitor of DU-145 cell invasion and migration
